Data set [1] in a line: Hygroscopicity of the drug substance. In kind it is physicochemical. The settings on record: normal storage conditions.
The nature of data set [2]: Solubility of the drug substance. In kind it is physicochemical.
The conditions of data set [3]: non-CF BE patients, 28 days, cited from earlier work.
For data set [4] the following is noted: healthy subjects, cited from earlier work.
Data set [5] is described as follows: Example 2 Phase 1 single-ascending dose study in healthy subjects. It is filed as in vivo, human. From the text: Following Screening, subjects received single doses of study drug and were monitored during an in-clinic period and an out-patient follow-up period. Subjects were confined to the study site for Study Days −2 through 7 to collect PK and safety assessments. Following discharge from the study site on Study Day 7, subjects returned to the study site on Study Days 14, 21, 28, and 35.

Where two headings read alike, the source gives them in different places.

On to `CC1=C(C#N)[C@@H](c2ccc(C#N)cc2S(C)(=O)=O)N(C)C(=O)N1c1cccc(C(F)(F)F)c1` [Compound 1, (4S)-4-[4-cyano-2-(methylsulfonyl)phenyl]-3,6-dimethyl-2-oxo-1-[3-(trifluoromethyl)phenyl]-1,2,3,4-tetrahydropyrimidine-5-carbonitrile], for which the hygroscopicity result in data set [1] was “not hygroscopic”. Also, in data set [2] (acetone), the solubility in acetone entry was “soluble”. Also, in data set [2] (ethanol), the solubility in ethanol result is given as “very slightly soluble”. Further, the solubility in water result in data set [2] (water) is “practically insoluble”. Moreover, the safety and tolerability result in data set [3] (1.0 mg oral IR tablet) is “generally safe and well tolerated”. Besides, in data set [3] (1.0 mg oral), the “SAEs attributed to the drug” value was “no SAEs were attributed by the investigator to the drug” and the “study drug-induced laboratory parameter or ECG effects” value was “No safety signals”. The “study drug-induced laboratory or ECG abnormalities” value in data set [4] (Phase 1 studies) was “No safety signals”. Also, in data set [4] (single and repeated doses up to 1 mg for up to 14 days), the safety and tolerability result is “safe and well tolerated”. For the same molecule, the serious adverse events result in data set [4] (three Phase 1 studies) was “no serious AEs (SAEs) were reported”. Further, in data set [5] (36 received Compound 1, single doses 1 to 40 mg), the subjects with headache result is “one”. In data set [5] (single doses 1 to 40 mg), the “AE rate compared with placebo” value is reported as “somewhat lower than that in the control (placebo) subjects”; the “effects on laboratory safety evaluations (clinical chemistry and hematology)” value is on record as “no clear effects”; the “exposure (AUC and Cmax) with dose” value was “proportional increases”; the “serious AEs” value is given as “no serious AEs”.

(Values after patent US20220296597A1, “USE OF A NEUTROPHIL ELASTASE INHIBITOR IN LUNG DISEASE” (pH Pharma Co., Ltd., priority 2019, published 2022).)
